“And” between values parts separate entries of the source, which are not always exact repeats. Equal values may be shown once. “Also recorded” adds a separate entry of the source.

The subject of assay [1] is dogs with osteosarcoma metastatic to the lungs. Kind of assay: Prospective pilot study: QoL of dogs given doxorubicin, oclacitinib and ladarixin. The note with it: for mqol gooddavs / mqol_active / mqol_depressed / mqol_drinks / mqol_eats / mqol_enjoyslife / mqol_lays / mqol_moves / mqol_play / mqol_presence / mqol_sleeps: with doxorubicin+oclacitinib. More on the design: mqol gooddavs / mqol_sleeps / mqol_depressed / mqol_eats / mqol_drinks / mqol_moves / mqol_lays / mqol_active / mqol_play / mqol_presence / mqol_enjoyslife: scale not given here. The format is in vivo. How it is done: A prospective pilot study was conducted to evaluate whether the addition of ladarixin to doxorubicin and oclacitinib mitigates the adverse event profile associated with doxorubicin which includes fatigue, lethargy, anorexia and a general decrease in quality of life (QoL).
A cohort of 5 dogs with osteosarcoma metastatic to the lungs was studied.
In this study, dogs received doxorubicin at […] IV, oclacitinib at 0.4-0.6 mg/kg orally twice per day (label dose) and ladarixin at 15 mg/kg twice per day.
A well validated QoL for dogs with cancer was used (Giuffrida et al., J Am Vet Med Assoc, 252(9): 1073-1083) to assess changes in performance status and quality of life during the course of the study. The QoL values were reported as a numerical value and tracked over each study visit. All owners were required to maintain a diary to chart the administration of medications, note any changes in behaviour, document appetite and energy levels, and identify any other changes in constitutional changes. Owners also recorded a daily performance status (scale from 0 to 5).

Assay [2] concerns cancer-related fatigue (CRF). Conditions: A. Spathis et al., 2014; cited from earlier work.
The conditions of assay [3]: oclacitinib alone; cited from earlier work.
Assay [4] relates to patients with metastatic triple negative breast cancer (TNBC). Kind of assay: Randomized, double-blind, placebo-controlled phase 2 study (FRIDA): fatigue as treatment emergent adverse event (NCI-CTCAE 4.03). The format is in vivo, human. How it is done: The study was conducted with 56 sites actively screening patients in the United States of America, Italy, France, Belgium, Spain, Czech Republic and Poland.
Two sub-groups of patients were studied: newly diagnosed metastatic patients and patients that had relapsed following a prior (neo)adjuvant chemotherapy regimen. Amongst other inclusion criteria, to be able to participate in the study, subjects were to have a Zubrod/ECOG Performance Status of 0 or 1 (0=Fully active; no performance restrictions 1=Strenuous physical activity restricted; fully ambulatory and able to carry out light work).
There was no limit to study treatment duration and patients remained in the study until disease progression, withdrawal of consent or unacceptable toxicity, whichever occurred first.
Investigators reported any adverse events experienced by study patients according to the NCI-CTCAE version 4.03. Toxicity was defined according to the grading scale for each parameter. According to this scale, the presence and intensity of fatigue is defined as follows: • Grade 1: Fatigue relieved by rest • Grade 2: Fatigue not relieved by rest, limiting instrumental ADL • Grade 3: Fatigue not relieved by rest, limiting self care ADL • where instrumental ADL refers to preparing meals, shopping for groceries or clothes, using the telephone, managing money, and the like and self care ADL refer to bathing, dressing and undressing, feeding self, using the toilet, taking medications, but not bedridden.
The distributions of fatigue as a treatment emergent adverse event (TEAE) irrespective of relationship with study treatment were compared among treatment groups using the Chi-squared test (Table 1).

Where [5] appears, read: D0, one value per dog (Record ID 1-5).
The mark [6] stands for this setting: D7, one value per dog (Record ID 1-5).
The mark [7] stands for this setting: D14, one value per dog (Record ID 1-5).
[8] abbreviates: D21, one value per dog (Record ID 3-5).
The mark [9] stands for this setting: judged by investigators under double-blind conditions, Chi-squared P 0.020.
The mark [10] stands for this setting: paclitaxel plus reparixin (Group 1) or placebo (Group 2), Chi-squared P 0.003.

Take `C[C@@H](C(=O)NS(C)(=O)=O)c1ccc(OS(=O)(=O)C(F)(F)F)cc1` [ladarixin]: the “total QoL score” value in assay [1] (5 dogs, ladarixin with doxorubicin and oclacitinib) was “over 100”. Further, in assay [1] (setting [5]), the mqol gooddavs was 5 (4×) and 4; the mqol_active was 5 (3×) and 2 and 4; the mqol_depressed was 5 (3×) and 4 (2×); the mqol_drinks was 5 (4×) and 4. In addition, in assay [1] (setting [5]), the mqol_eats is 5 (4×) and 4; the mqol_enjoyslife was 5 (4×) and 4; the mqol_lays is 5 (4×) and 2; the mqol_moves is 5 (4×) and 2. Moreover, in assay [1] (setting [5]), the mqol_play was 5 (4×) and 4; the mqol_presence was 5 (4×) and 4; the mqol_sleeps is 4 and 3 and 5 (3×). In addition, in assay [1] (setting [6]), the mqol gooddavs was 4 and 5 (4×); the mqol_active is recorded as 5; the mqol_depressed was 4 and 5 (4×); the mqol_drinks is 5. Also, in assay [1] (setting [6]), the mqol_eats is 5 (4×) and 3; the mqol_enjoyslife turned out to be 5; the mqol_lays was 4 and 5 (4×); the mqol_moves was 4 and 5 (4×). Further, in assay [1] (setting [6]), the mqol_play was 5 (4×) and 4; the mqol_presence was determined as 5; the mqol_sleeps is 4 (2×) and 2 and 1 and 5. In assay [1] (setting [7]), the mqol gooddavs is on record as 5; the mqol_active is 5 (3×) and 4 and 3; the mqol_depressed was 5 (4×) and 4; the mqol_drinks stood at 5. In assay [1] (setting [7]), the mqol_eats is listed as 5; the mqol_enjoyslife is given as 5; the mqol_lays is 5 (4×) and 4; the mqol_moves was 5 (2×) and 4 (3×). In addition, in assay [1] (setting [7]), the mqol_play was determined as 5; the mqol_presence was 5 (4×) and 4; the mqol_sleeps is 5 (2×) and 4 and 3 (2×). In assay [1] (setting [8]), the mqol gooddavs was 5 (2×) and 4; the mqol_active is 5 (2×) and 2; the mqol_depressed is 5 (2×) and 4; the mqol_drinks was 5 (2×) and 4. Further, in assay [1] (setting [8]), the mqol_eats was 5 (2×) and 4; the mqol_enjoyslife is 5 (2×) and 4; the mqol_lays is 5 (2×) and 2; the mqol_moves was 4 and 3 and 5. Moreover, in assay [1] (setting [8]), the mqol_play was 5 (2×) and 4; the mqol_presence was 5 (2×) and 4; the mqol_sleeps is 5 (2×) and 3. Besides, in assay [1] (ladarixin added to doxorubicin and oclacitinib), the “Effect on severity of fatigue associated with doxorubicin treatment (in words)” value is “reduced the severity of the known fatigue induced by the treatment with doxorubicin; also recorded: reduced the severity of the known fatigue associated to the treatment”.

In the case of `NC(=O)C[S+]([O-])C(c1ccccc1)c1ccccc1` (stereo not drawn) [modafimil], the “Benefit over placebo in CRF (in words)” value in assay [2] is recorded as “no benefit over placebo”.

Take `CNS(=O)(=O)C[C@H]1CC[C@H](N(C)c2ncnc3[nH]ccc23)CC1` [oclacitinib]: the “Ability to reduce severity of fatigue associated with chemotherapy (in words)” value in assay [3] is given as “not able to reduce the severity of fatigue associated with chemotherapy”.

As to `CC(=O)O[C@H]1C(=O)[C@@]2(C)[C@H]([C@H](OC(=O)c3ccccc3)[C@]3(O)C[C@H](OC(=O)[C@H](O)[C@@H](NC(=O)c4ccccc4)c4ccccc4)C(C)=C1C3(C)C)[C@]1(OC(C)=O)CO[C@@H]1C[C@@H]2O` [paclitaxel], in assay [4] (in vivo), the “Subjects with severe (Grade 3) treatment-related fatigue, number” value is given as “two” and the “Subjects with severe (Grade 3) treatment-related fatigue, percent” value turned out to be 3.3%. In addition, in assay [4] (setting [9]), the “Fatigue as TEAE at least possibly related to study treatment: No, number of subjects” value is given as 43; the “Fatigue as TEAE at least possibly related to study treatment: No, percent of subjects” value is 71.7%; the “Fatigue as TEAE at least possibly related to study treatment: Yes, number of subjects” value is recorded as 17 subjects; the “Fatigue as TEAE at least possibly related to study treatment: Yes, percent of subjects” value is listed as 28.3%. Besides, in assay [4] (paclitaxel 80 mg/m2 i.v. plus reparixin 1200 mg t.i.d. (Group 1) or placebo (Group 2), Chi-squared P 0.003), the “Fatigue as TEAE irrespective of relationship with study treatment: Yes, number of subjects” value was 26 subjects. Moreover, in assay [4] (setting [10]), the “Fatigue as TEAE irrespective of relationship with study treatment: No, number of subjects” value is given as 34; the “Fatigue as TEAE irrespective of relationship with study treatment: No, percent of subjects” value came to 56.7%; the “Fatigue as TEAE irrespective of relationship with study treatment: Yes, percent of subjects” value is given as 43.3%.

Regarding `CC(C)Cc1ccc([C@@H](C)C(=O)NS(C)(=O)=O)cc1` [reparixin, R-(−)-2-(4-isobutylphenyl)propionyl methansulfonamide], in assay [4] (all patients experiencing fatigue, mild and moderate), the “Severity of fatigue in patients experiencing fatigue (NCI-Common Toxicity Criteria Grade)” value is given as 1-2 Grade. For the same compound, the “Effect on incidence and severity of fatigue (in words)” value in assay [4] (paclitaxel plus reparixin compared with paclitaxel and placebo) is “beneficial effect on incidence and severity of cancer-related fatigue; also recorded: significantly lower incidence and severity of treatment-related fatigue”.
